Experimental data published in patent US4738954A, “Novel N^6 -substituted-5'-oxidized adenosine analogs” (Warner-Lambert Company, priority 1985, dated 1988).
pIC50: −log10 of the molar value.

Tested on: platelets (collagen-induced aggregation)
Experiment: Antithrombocyte aggregation test in vitro (ATA-8), collagen-induced, whole blood
Assay type: cell-based, human (Community Research Clinic volunteers)
Conditions: Homo sapiens, Platelet
Experimental: ANTITHROMBOCYTE AGGREGATION TEST-IN VITRO (ATA-8)
Blood is collected from Community Research Clinic volunteers who have not ingested aspirin or other non-steroidol antiinflammatory drugs within the preceeding two weeks and have not eaten within the nine hours before blood draw. Blood is taken in 4.5 ml portions in Vacutainer No. 6462S silicone-coated tubes or equivalent containing 0.5 ml of 3.8% trisodium citrate. Usually six or eight portions of 4.5 ml are drawn from each volunteer. The blood collected from three or four volunteers is pooled prior to centrifugation. […]
Addition of drug solution or saline (0.02 ml) is followed in 5 min by addition of aggregating agent (ADP or collagen suspension, 0.02 ml). Extent of aggregation, using ADP stimulus, or rate of aggregation, using collagen stimulus, is determined using the Payton Scientific Dual Channel Aggregation Module, Model 300B. Appropriate concentrations of ADP or collagen are determined by an initial brief titration.
The major slope (that is, the slope of the first straight line portion) of the collagen-induced aggregation curve for each drug concentration is determined and compared to the slope of the curve for control aggregations. Values for drug test aggregations are expressed as "precent of control" and are plotted versus drug concentration on semilog paper. […]

Q: `CCNC(=O)[C@H]1O[C@@H](n2cnc3c(N[C@H](C)Cc4ccccc4)ncnc32)[C@H](O)[C@@H]1O` [Example 1, (R)-N-6-[(2-phenyl-1-methyl)ethyl]-adenosine-5'-ethylcarboxamide] was tested. Which pIC50 did it give?
A: The pIC50 was 7.30.
